Experimental data taken from US5385910A, “Gem-distributed esters of rapamycin” (American Home Products Corporation, priority 1993, dated 1995).
Values joined by “and” are separate entries in the source; they are usually repeats but may differ in a detail not shown here. Identical values can stand only once. Counter-ions that a name gives are not always drawn.

Key:
[1] = system: Freud's Complete Adjuvant induced arthritis in rats; assay: adjuvant arthritis standard pharmacological test procedure; type: in vivo, male inbread Wistar Lewis rats; details: 5 mg/kg oral, 7 doses, day 16; more negative = more potent
Description: Immunosuppressive activity for representative compounds of this invention was evaluated in an in vitro standard pharmacological test procedure to measure lymphocyte proliferation (LAF) and in three in vivo standard pharmacological test procedures. The pinch skin graft test procedure measures the immunosuppressive activity of the compound tested as well as the ability of the compound tested to inhibit or treat transplant rejection. The adjuvant arthritis standard pharmacological test procedure, which measures the ability of the compound tested to inhibit immune mediated inflammation. The adjuvant arthritis test procedure is a standard pharmacological test procedure for rheumatoid arthritis. Representative compounds of this invention were also evaluated in a heart allograft standard pharmacological test procedure which measures immunosuppressive activity of the compound tested as well as the ability of the compound tested to inhibit or treat transplant rejection. […]
The adjuvant arthritis standard pharmacological test procedure measures the ability of test compounds to prevent immune mediated inflammation and inhibit or treat rheumatoid arthritis. […] Both hind paws are measured on days 16, 23, and 30. The difference in paw volume (mL) from day 16 to day 0 is determined and a percent change from control is obtained. […]

[2] = system: heart allograft from BN rat neonate donors in Lewis rats; assay: heterotropic heart allograft standard pharmacological test procedure; type: in vivo; details: 300 μg/day, i.p.; untreated allografts rejected in about 9-10 days
Description: (§1) Immunosuppressive activity for representative compounds of this invention was evaluated in an in vitro standard pharmacological test procedure to measure lymphocyte proliferation (LAF) and in three in vivo standard pharmacological test procedures. The pinch skin graft test procedure measures the immunosuppressive activity of the compound tested as well as the ability of the compound tested to inhibit or treat transplant rejection. The adjuvant arthritis standard pharmacological test procedure, which measures the ability of the compound tested to inhibit immune mediated inflammation. The adjuvant arthritis test procedure is a standard pharmacological test procedure for rheumatoid arthritis. Representative compounds of this invention were also evaluated in a heart allograft standard pharmacological test procedure which measures immunosuppressive activity of the compound tested as well as the ability of the compound tested to inhibit or treat transplant rejection. The procedures for these standard pharmacological test procedures are provided below.
The ability of the compounds of this invention to induce immunosuppression and inhibit or treat transplantation rejection was evaluated in a heterotropic heart allograft standard pharmacological test procedure that emulates transplantation rejection that occurs in humans. The following briefly describes the procedure that was used. […]

[3] = system: thymus cells of normal BALB/c mice (PHA and IL-1 induced lymphocyte proliferation); assay: comitogen-induced thymocyte proliferation procedure (LAF); type: cell-based; details: thymocytes cultured 72 hours with PHA and IL-1; tritiated thymidine last six hours; maleate salt; read-out: LAF IC50
Description: as §1
The comitogen-induced thymocyte proliferation procedure (LAF) was used as an in vitro measure of the immunosuppressive effects of representative compounds. Briefly, cells from the thymus of normal BALB/c mice are cultured for 72 hours with PHA and IL-1 and pulsed with tritiated thymidine during the last six hours. Cells are cultured with and without various concentrations of rapamycin, cyclosporin A, or test compound. Cells are harvested and incorporated radioactivity is determined. Inhibition of lymphoproliferation is assessed as percent change in counts per minute from non-drug treated controls. For each compound evaluated, rapamycin was also evaluated for the purpose of comparison. An IC50 was obtained for each test compound as well as for rapamycin. […] The results obtained are provided as an IC50.

[4] = system: pinch skin graft from male BALB/c donors transplanted to male C3 H(H-2K) recipients; assay: pinch skin graft survival test procedure; type: in vivo, C3 H(H-2K) recipients (mice); details: 4 mg/kg, intraperitoneally or orally; untreated grafts rejected within 6-7 days; maleate salt
Description: Representative compounds of this invention were also evaluated in an in vivo test procedure designed to determine the survival time of pinch skin graft from male BALB/c donors transplanted to male C3 H(H-2K) recipients. […] Briefly, a pinch skin graft from the donor was grafted on the dorsum of the recipient as a allograft, and an isograft was used as control in the same region. The recipients were treated with either varying concentrations of test compounds intraperitoneally or orally. Rapamycin was used as a test control. Untreated recipients serve as rejection control. The graft was monitored daily and observations were recorded until the graft became dry and formed a blackened scab. This was considered as the rejection day. The mean graft survival time (number of days±S.D.) of the drug treatment group was compared with the control group. […] Results are expressed as the mean survival time in days. Untreated (control) pinch skin grafts are usually rejected within 6-7 days. Compounds were tested using a dose of 4 mg/kg.

CO[C@H]1C[C@@H]2CC[C@@H](C)[C@@](O)(O2)C(=O)C(=O)N2CCCC[C@H]2C(=O)O[C@H]([C@H](C)C[C@@H]2CC[C@@H](OC(=O)C(C)(C)N)[C@H](OC)C2)CC(=O)[C@H](C)/C=C(\C)[C@@H](O)[C@@H](OC)C(=O)[C@H](C)C[C@H](C)/C=C/C=C/C=C/1C [Example 6, Rapamycin 42-ester with 2-amino-2-methylpropionic acid maleate salt]
Percent change in adjuvant arthritis versus control (uninjected paw) [1]: -73%
Heart allograft survival time (mean) [2]: 19.11 days
IC50 [3]: 5.3 nM and 8.4 nM
Skin graft survival time (mean survival time ± S.D.) [4]: 12.0 ± 0.0 days and 11.0 ± 0.9 days
